The conditions of series [1]: cited from earlier work.
For series [2] the following is noted: estimated; absolute bioavailability was not able to be determined; cited from earlier work.
A short description of series [3]: Solubility in supercritical CO2 or another supercritical solvent. The format is physicochemical. As to the method: A method for a novel formulation being the object of the present invention, uses the technology of supercritical CO2 based on the solvent power of CO2 which may be modulated at will according to the pressure and temperature conditions which are applied to it. In the supercritical state (more than 74 bars and 31° C.), CO2 has very particular properties. The obtained fluid is characterized by great diffusivity (of the order of that of gases), which gives it good diffusion capability, and a high density which provides it with significant transport and extraction capability.
A supercritical fluid has another advantage over other solvents: its solubility changes depending on whether its temperature or its pressure is varied. Thus it is possible to ensure that it is a solvent for certain substances at a given instant, and no longer for one at the following instant. This facilitates recovery of the substance which was dissolved.
The following step consists of spraying the dissolved active ingredient on an inert support, and then of studying the grain size of the obtained particles as well as the crystalline form of the same particles.
Different parameters were then modified: • changing the inert support (anhydrous lactose replaced with mannitol), • increasing the loading level up to 30% of active ingredient load, • using S modafinil, • a supercritical solvent other than CO2 . […]

The conditions of series [4]: crystalline white powder, cited from earlier work.

Each structure is given as a SMILES string.

Consider `NC(=O)C[S+]([O-])C(c1ccccc1)c1ccccc1` (racemic) [Modafinil, 2-[(diphenylmethyl)sulfinyl]acetamide], for which the elimination half-life result in series [1] (in humans) is “about 14 hours”. Also, the bioavailability entry in series [2] is “about 40%”. The “solubility in CO2” value in series [3] is on record as “acceptable solubility”. The solubility in acetone entry in series [4] (acetone) is given as “partly soluble”. The solubility in methanol entry in series [4] (methanol) was “partly soluble”. In series [4] (water), the solubility in water entry was “practically insoluble”.
Consider `NC(=O)C[S@@+]([O-])C(c1ccccc1)c1ccccc1` (single isomer, unassigned) [enantiomer R], for which, in series [1] (after administration), the “AUC (area under the curve) compared with the racemic form” value was “greater AUC (area under the curve) than the racemic form” and the “variability of plasma levels compared with the racemic form” value is given as “less variability of plasma levels”.

The values are drawn from patent publication US20150073055A1, “USE OF MODAFINIL IN THE TREATMENT OF COCAINE ADDICTS” (DEBREGEAS ET ASSOCIES PHARMA, priority 2012, published 2015).
